Article PMC2742306 (Molecular cell, 2009)
Residue numbers refer to the chain shown, from its start. Residues, ends and D or L forms follow the SMILES beside them.

Tests used:
[1] = biological target: T1, K243D/M319A double mutant of DegS (Escherichia coli, UniProt P0AEE3, K243D/M319A); assay: OMP-peptide activation of RseA cleavage by K243D/M319A DegS; type: biochemical, E. coli
D320A DegS [2] = biological target: T2, D320A DegS (Escherichia coli, UniProt P0AEE3, D320A); assay: OMP-peptide activation of RseA cleavage by D320A DegS; type: biochemical, E. coli
D320A DegS [3] = biological target: T2, D320A DegS; assay: Global fit to MWC allosteric model, D320A DegS; type: biochemical, E. coli
wild-type DegS [4] = biological target: T3, wild-type DegS (Escherichia coli, UniProt P0AEE3); type: biochemical, E. coli
[5] = biological target: T1, K243D/M319A double mutant of DegS; type: biochemical, E. coli; details: saturating peptide
K243D mutant of DegS [6] = biological target: T4, K243D mutant of DegS (Escherichia coli, UniProt P0AEE3, K243D); assay: Global fit to MWC allosteric model, K243D DegS; type: biochemical, E. coli
D320A DegS [7] = biological target: T2, D320A DegS; type: biochemical, E. coli
[8] = biological target: T1, K243D/M319A double mutant of DegS; assay: Global fit to MWC allosteric model, K243D/M319A DegS; type: biochemical, E. coli
M319A DegS [9] = biological target: T5, M319A DegS (Escherichia coli, UniProt P0AEE3, M319A); assay: OMP-peptide activation of RseA cleavage by M319A DegS; type: biochemical, E. coli
K243D mutant of DegS [10] = biological target: T4, K243D mutant of DegS; assay: OMP-peptide activation of RseA cleavage by K243D DegS; type: biochemical, E. coli
wild-type DegS [11] = biological target: T3, wild-type DegS; type: biochemical, E. coli; details: wild-type DegS 0.5 μM trimer, YYF 300 μM
wild-type DegS [12] = biological target: T3, wild-type DegS; assay: OMP-peptide activation of RseA cleavage by wild-type DegS; type: biochemical, E. coli
K243D mutant of DegS [13] = biological target: T4, K243D mutant of DegS; type: biochemical, E. coli
M319A DegS [14] = biological target: T5, M319A DegS; assay: Global fit to MWC allosteric model, M319A DegS; type: biochemical, E. coli
wild-type DegS [15] = biological target: T3, wild-type DegS; type: biochemical, E. coli; details: wild-type DegS 0.9 μM trimer; 20 μM rhodamine-FP; saturating peptide
[16] = biological target: T6, DegS K243D (residues 27–355, N-terminal His6 tag) (E. coli, UniProt P0AEE3 27-355, K243D); assay: cell-based or functional assay
T6 sequence (looked up): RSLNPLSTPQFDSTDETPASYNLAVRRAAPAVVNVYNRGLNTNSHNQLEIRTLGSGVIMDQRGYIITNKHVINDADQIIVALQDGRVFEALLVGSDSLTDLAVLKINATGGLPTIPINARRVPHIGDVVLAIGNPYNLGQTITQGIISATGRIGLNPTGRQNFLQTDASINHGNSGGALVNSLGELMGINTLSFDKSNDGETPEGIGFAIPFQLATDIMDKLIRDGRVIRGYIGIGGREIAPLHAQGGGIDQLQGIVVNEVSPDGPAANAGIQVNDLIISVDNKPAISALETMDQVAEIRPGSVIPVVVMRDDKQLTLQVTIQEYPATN

[17] = biological target: T7, DegS K243D/M319A double mutant (residues 27–355, N-terminal His6 tag) (E. coli, UniProt P0AEE3 27-355, K243D | M319A); assay: cell-based or functional assay
T7 sequence (looked up): T6 sequence (looked up) with M293A

[18] = biological target: T8, DegS K243D/D320A double mutant (residues 27–355, N-terminal His6 tag) (E. coli, UniProt P0AEE3 27-355, K243D | D320A); assay: cell-based or functional assay
T8 sequence (looked up): T6 sequence (looked up) with D294A

[19] = biological target: T9, DegS D320A (residues 27–355, N-terminal His6 tag) (E. coli, UniProt P0AEE3 27-355, D320A); assay: cell-based or functional assay
T9 sequence (looked up): T6 sequence (looked up) with D217K, D294A

[20] = D320A, MWC global fit, RseA, not peptide, binding
[21] = K243D, MWC global fit, RseA, not peptide, binding
[22] = M319A, MWC global fit, RseA, not peptide, binding

T2 sequence (P0AEE3 27-355 D320A): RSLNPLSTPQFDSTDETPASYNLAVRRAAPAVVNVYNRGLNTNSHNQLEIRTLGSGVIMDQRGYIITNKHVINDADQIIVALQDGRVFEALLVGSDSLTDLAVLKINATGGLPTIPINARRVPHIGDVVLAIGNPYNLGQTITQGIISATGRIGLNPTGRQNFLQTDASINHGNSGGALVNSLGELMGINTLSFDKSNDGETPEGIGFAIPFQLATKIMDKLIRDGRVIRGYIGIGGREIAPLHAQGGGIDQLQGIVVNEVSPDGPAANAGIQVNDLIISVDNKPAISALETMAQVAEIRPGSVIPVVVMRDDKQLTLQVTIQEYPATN
T5 sequence (P0AEE3 27-355 M319A): as the sequence (P0AEE3 27-355 D320A) above, with M293A, A294D counted along it
T1 sequence (P0AEE3 27-355 K243D/M319A): as the sequence (P0AEE3 27-355 D320A) above, with K217D, M293A, A294D counted along it
T3 sequence (P0AEE3 27-355): as the sequence (P0AEE3 27-355 D320A) above, with A294D counted along it

N[C@@H](Cc1ccc(O)cc1)C(=O)N[C@@H](Cc1ccc(O)cc1)C(=O)N[C@@H](Cc1ccccc1)C(=O)O [YYF] (H-Tyr-Tyr-Phe-OH)
EC50 [1]: 0.7 ± 0.2 µM
Hill Constant (peptide activation) ([1]; K243D/M319A, 200 μM RseA): 1.2 ± 0.1
Maximum Activity (RseA cleavage) ([1]; K243D/M319A, 200 μM RseA, 23 °C, pH 8.3, average of two or more determinations): 2700 ± 400 M⁻¹ s⁻¹
EC50 (D320A DegS [2]): 4.8 ± 1.2 µM
Hill Constant (peptide activation) (D320A DegS [2]; D320A, 200 μM RseA): 1.4 ± 0.1
activation relative to wild-type DegS (D320A DegS [2]; D320A, single substrate concentration): only marginally better than wild-type DegS
reduction of (KTP/KRP)^3 relative to wild-type (D320A DegS [3]; D320A (range given for K243D and D320A together), MWC model): 30–70 fold
KRS, dissociation constant of RseA substrate for R-state subunit (D320A DegS [3]; [20]): 150 µM
KTS, dissociation constant of RseA substrate for T-state subunit (D320A DegS [3]; [20]): 505 µM
L0, equilibrium constant T/R of unliganded enzyme (D320A DegS [3]; D320A, MWC global fit, enzyme parameter, peptide-independent): 350
KTP/KRP (D320A DegS [3]; D320A, MWC global fit, peptide preference for relaxed state): 4.1
kr, rate constant for cleavage of RseA by substrate-bound R-state subunits (D320A DegS [3]; D320A, MWC global fit, same value for all enzymes and peptides): 3.3 s⁻¹
enzymes in active conformation (D320A DegS [3]; D320A, saturating peptide and RseA, MWC model): about 85%
L0, equilibrium constant T/R of unliganded enzyme (wild-type DegS [4]; MWC global fit, enzyme parameter, peptide-independent): 15000
KTP/KRP (wild-type DegS [4]; MWC global fit, peptide preference for relaxed state): 12.3
kr, rate constant for cleavage of RseA by substrate-bound R-state subunits (wild-type DegS [4]; MWC global fit, same value for all enzymes and peptides): 3.3 s⁻¹
DegS molecules in active conformation (wild-type DegS [4]; saturating peptide and saturating RseA substrate, MWC model): 83%
Hill Constant (RseA substrate) [5]: 1.2 ± 0.1
Vmax (RseA cleavage) ([5]; 23 °C, pH 8.3): 2.1 ± 0.2 s^−1enz^−1
reduction of (KTP/KRP)^3 relative to wild-type (K243D mutant of DegS [6]; K243D (range given for K243D and D320A together), MWC model): 30–70 fold
KRS, dissociation constant of RseA substrate for R-state subunit (K243D mutant of DegS [6]; [21]): 150 µM
KTS, dissociation constant of RseA substrate for T-state subunit (K243D mutant of DegS [6]; [21]): 505 µM
L0, equilibrium constant T/R of unliganded enzyme (K243D mutant of DegS [6]; K243D, MWC global fit, enzyme parameter, peptide-independent): 180
KTP/KRP (K243D mutant of DegS [6]; K243D, MWC global fit, peptide preference for relaxed state): 3.0
kr, rate constant for cleavage of RseA by substrate-bound R-state subunits (K243D mutant of DegS [6]; K243D, MWC global fit, same value for all enzymes and peptides): 3.3 s⁻¹
enzymes in active conformation (K243D mutant of DegS [6]; K243D, saturating peptide and RseA, MWC model): about 85%
Vmax (RseA cleavage) (D320A DegS [7]; D320A 0.3 μM trimer, saturating peptide (DNRDGNVYYF 30 μM), 23 °C, pH 8.3): 3.1 ± 0.3 s^−1enz^−1
Vmax relative to wild-type DegS (D320A DegS [7]; D320A, saturating YYF): roughly within error for wild-type and the mutants
Hill Constant (RseA substrate) (D320A DegS [7]; D320A, saturating peptide): 1.2 ± 0.1
KRS, dissociation constant of RseA substrate for R-state subunit ([8]; RseA, not peptide, binding): 150 µM
KTS, dissociation constant of RseA substrate for T-state subunit ([8]; RseA, not peptide, binding): 505 µM
L0, equilibrium constant T/R of unliganded enzyme ([8]; enzyme parameter, peptide-independent): 90
KTP/KRP ([8]; peptide preference for relaxed state): 2.1
kr, rate constant for cleavage of RseA by substrate-bound R-state subunits ([8]; same value for all enzymes and peptides): 3.3 s⁻¹
EC50 (M319A DegS [9]): 3.2 ± 0.4 µM
Hill Constant (peptide activation) (M319A DegS [9]; M319A, 200 μM RseA): 1.1 ± 0.1
Maximum Activity (RseA cleavage) (M319A DegS [9]; M319A, 200 μM RseA, 23 °C, pH 8.3, average of two or more determinations): 120 ± 20 M⁻¹ s⁻¹
decrease of half-maximal activation concentration relative to wild-type DegS (M319A DegS [9]; M319A, lower than wild-type): 10 fold
decrease of peptide-activated activity relative to wild-type DegS (M319A DegS [9]; M319A, saturating YYF, lower than wild-type value): 20 fold
EC50 (K243D mutant of DegS [10]): 6.4 ± 1.6 µM
Hill Constant (peptide activation) (K243D mutant of DegS [10]; K243D, 200 μM RseA): 1.4 ± 0.2
activation relative to wild-type DegS (K243D mutant of DegS [10]; K243D, single substrate concentration): only marginally better than wild-type DegS
Hill Constant (RseA substrate) (wild-type DegS [11]): 1.4 ± 0.2
Vmax (RseA cleavage) (wild-type DegS [11]; 23 °C, pH 8.3): 2.6 ± 0.2 s^−1enz^−1
EC50 (wild-type DegS [12]): 29 ± 3 µM
displacement in concentration between YYF and YQF activation curves (wild-type DegS [12]; wild-type DegS): ~10 fold
Hill Constant (peptide activation) (wild-type DegS [12]; wild-type DegS, 200 μM RseA): 1.7 ± 0.1
Vmax (RseA cleavage) (K243D mutant of DegS [13]; K243D 0.3 μM trimer, saturating peptide (DNRDGNVYYF 30 μM), 23 °C, pH 8.3): 2.3 ± 0.1 s^−1enz^−1
Vmax relative to wild-type DegS (K243D mutant of DegS [13]; K243D, saturating YYF): roughly within error for wild-type and the mutants
Hill Constant (RseA substrate) (K243D mutant of DegS [13]; K243D, saturating peptide): 1.3 ± 0.1
KRS, dissociation constant of RseA substrate for R-state subunit (M319A DegS [14]; [22]): 150 µM
KTS, dissociation constant of RseA substrate for T-state subunit (M319A DegS [14]; [22]): 505 µM
L0, equilibrium constant T/R of unliganded enzyme (M319A DegS [14]; M319A, MWC global fit, enzyme parameter, peptide-independent): 5500
KTP/KRP (M319A DegS [14]; M319A, MWC global fit, peptide preference for relaxed state): 2.7
kr, rate constant for cleavage of RseA by substrate-bound R-state subunits (M319A DegS [14]; M319A, MWC global fit, same value for all enzymes and peptides): 3.3 s⁻¹
reduction of (KTP/KRP)^3 relative to wild-type (M319A DegS [14]; M319A, MWC model): ~100 fold
enzymes in active conformation (M319A DegS [14]; M319A, saturating peptide and substrate, MWC model): about 10%
tighter binding to tense M319A than to tense wild-type DegS (M319A DegS [14]; MWC modeling): about 20 fold
rate of rhodamine-FP modification in presence of peptide (order) (wild-type DegS [15]): fastest

B1: 35S-labeled variant of the periplasmic domain of E. coli RseA (residues 121–216) with a C-terminal His6 tag (domain or fragment, UniProt P0AFX7 121-216, looked up)
chain: YNGQSETSQQPETPVFNTLPMMGKASPVSLGVPSEATANNGQQQQVQEQRRRINAMLQDYELQRRLHSEQLQFEQAQTQQAAVQVPGIQTLGTQSQ
modifications: 35S-labeled
KM of RseA cleavage with saturating YYF peptide [16]: 440 µM
KM of RseA cleavage with saturating … peptide [16]: 580 µM
KM of RseA cleavage with saturating YYF peptide [17]: 490 µM
KM of RseA cleavage with saturating … peptide [17]: 840 µM
KM of RseA cleavage with saturating … peptide [18]: 630 µM
KM of RseA cleavage with saturating YYF peptide [19]: 430 µM
KM of RseA cleavage with saturating … peptide [19]: 520 µM
